{"source": "patent US9889135B2", "about": "“Companion diagnostic for CDK4 inhibitors” (Memorial Sloan-Kettering Cancer Center, priority 2013, dated 2018)", "key": {"[1]": {"tested_on": "MDM2 in DKMG glioma cells", "experiment": "MDM2 expression by immunoblot", "assay_type": "cell-based", "experimental": "(§1) Antibodies against CDK4 (3F121), MDM2 (N-20 and SMP14), total RB (IF8), Cyclin A (H432), p16 (C20), p53 (DO-1 and Bp53-12), tubulin (C20) and FLAG (M2) were obtained from Santa Cruz Biotechnology, phospho-Rb 780 (#9307) from Cell Signalling, and ARF (3642) from Abeam, HAUSP (A300-033A) from Bethyl Laboratories. Treated cells were lysed with buffer composed of 50 mM Tris-HCl, pH7.4, 250 mM NaCl, 5 mM EDTA, 0.5% NP40, 2 mM PMSF, and supplemented with protease inhibitors. Eighty micrograms of protein were resolved by SDS-PAGE and transferred to PVDF membranes. Membranes were incubated overnight with antibodies (1:1000). […] Cycles were repeated every four weeks and patients are still on trial. Pre-treatment biopsies were collected within two weeks of the first dose and post-treatment biopsies collected after at last three weeks of treatment. Extracts were prepared in 50 mM Tris-HCl, pH7.4, 150 mM NaCl, 1 mM EDTA, 1% NP40, 0.25% sodium deoxycholate and supplemented with mini-protease inhibitor cocktail (Roche). Tumor response was assessed by reference radiologist by CT scan every six weeks for 36 weeks, and every 12 weeks thereafter. The clinical trial was approved by the Institutional Review Board of Memorial Sloan-Kettering Cancer Center and all patients provided written informed consent (NCT01209598)."}, "[2]": {"tested_on": "MDM2 in MCF7 breast cancer cells", "experiment": "MDM2 expression by immunoblot", "assay_type": "cell-based", "experimental": "as §1"}, "[3]": {"tested_on": "MDM2 in T98G glioma cells", "experiment": "MDM2 expression by immunoblot", "assay_type": "cell-based", "experimental": "as §1"}, "RB in WD/DDLS cell lines": {"tested_on": "RB in WD/DDLS cell lines", "experiment": "RB phosphorylation by immunoblot", "assay_type": "cell-based, human", "settings": "1 or 2 days of treatment", "experimental": "FIG. 1A-C. […] Mean percentage of BrdU incorporation or annexin V+/7-AAD− cells was calculated from three or more independent experiments. Error bars represent standard deviation (*p<0.05).\nas §1, with “The clinical trial was approved by the Institutional Review Board of Memorial Sloan-Kettering Cancer Center and all patients provided written informed consent (NCT01209598).” left out"}, "[4]": {"tested_on": "γH2AX and 53BP1 foci in LS8107 and LS7785-10 cells", "experiment": "DNA damage foci", "assay_type": "cell-based, human", "source_text": "(§2) Extracts from control and irradiated mouse embryo fibroblasts were included as a control. Tubulin is a control. (B) γH2AX and 53BP1 foci were scored in the indicated cell lines. As per (Doll et al., 2009; […] et al., 2012) having a cell with greater than 10 foci (white) is considered positive for DNA damage. As expected for WD/DDLS cell lines the basal level of DNA damage was quite high."}, "[5]": {"tested_on": "γH2AX and 53BP1 foci in LS8817 cells", "experiment": "DNA damage foci", "assay_type": "cell-based, human", "source_text": "as §2"}, "[6]": {"tested_on": "LS8107, LS7785-10, LS8313 and LS7785-1 cells", "experiment": "Oil-Red O staining of lipid droplets", "assay_type": "cell-based, human"}, "[7]": {"tested_on": "MDM2 transcripts in WD/DDLS cell lines", "experiment": "MDM2 transcript levels by qPCR", "assay_type": "cell-based, human", "settings": "two days; each cell line"}, "[8]": {"tested_on": "MDM2 in LS7785-1 and LS7785-10 cells", "experiment": "MDM2 turnover (cycloheximide chase), non-responder cells", "assay_type": "cell-based, human", "settings": "non-responder cells LS7785-1 and LS7785-10; 1 μM for 48 hrs, then cycloheximide", "experimental": "The level of MDM2 was measured by immunoblot (center). Tubulin was a loading control. […] This experiment was repeated at least three times on different biologic replicates. […] Tubulin is a loading control. Data compiled from at least three independent experiments is plotted (mean and standard deviation) and a representative immunoblot is shown. […] The graphs are compiled from the data obtained in three independent biologic replicates and representative autoradiographs are shown."}, "[9]": {"tested_on": "HAUSP in WD/DDLS cell lines", "experiment": "HAUSP levels by immunoblot", "assay_type": "cell-based, human", "settings": "2 days of treatment", "experimental": "FIG. 25A-D. Turnover of MDM2 is regulated post-translationally. […] Extracts were prepared and MDM2 was immunoprecipitated and the presence of HAUSP and MDM2 in the precipitates were determined by immunoblot. IgG was used as a non-specific antibody control for the immunoprecipitation. […] Tubulin is a loading control. HAUSP levels were reduced with shRNA in the indicated cells lines and the effect on protein expression (C) and the accumulation of senescence-associated (3-galactosidase positive cells measured (D). The mean and standard deviation was compiled from at least two independent experiments with each cell line and a representative immunoblot is shown."}, "[10]": {"tested_on": "LS8817 cells with enforced MDM2 expression", "experiment": "PD0332991 response with enforced MDM2 expression", "assay_type": "cell-based, human", "experimental": "(A) Immunoblot. […] Tubulin was a loading control. (B) Immunoblot. […] This experiment was carried out with three different pools of transductants multiple times (*p<0.05, **p<0.01). r^2 is calculated as the best-fit correlation.\nFIG. 17. […] Cells transduced with an RFP expressing virus were used as a control.\nFor MDM2 and Rb expression, cells were infected with a lentivirus (pLOC, Open Biosystems) encoding either MDM2, MDM2 V75A, MDM2 I440A, MDM2 C464A, MDM2 Δ254-264, MDM2 L468A, MDM2 Δ464-471, MDM2 P476A, RB, LP-RB, PSM-RB or RFP. Transduced cells were selected for in media containing 3 μg/ml blasticidin and selection was maintained throughout the experiment."}, "WD/DDLS": {"tested_on": "WD/DDLS", "experiment": "phase II clinical trial (NCT01209598), tumor response by CT scan, RECIST", "assay_type": "in vivo, human", "experimental": "FIG. 7. […] GAPDH serves as a loading control.\nAntibodies against CDK4 (3F121), MDM2 (N-20 and SMP14), total RB (IF8), Cyclin A (H432), p16 (C20), p53 (DO-1 and Bp53-12), tubulin (C20) and FLAG (M2) were obtained from Santa Cruz Biotechnology, phospho-Rb 780 (#9307) from Cell Signalling, and ARF (3642) from Abeam, HAUSP (A300-033A) from Bethyl Laboratories. Treated cells were lysed with buffer composed of 50 mM Tris-HCl, pH7.4, 250 mM NaCl, 5 mM EDTA, 0.5% NP40, 2 mM PMSF, and supplemented with protease inhibitors. Eighty micrograms of protein were resolved by SDS-PAGE and transferred to PVDF membranes. Membranes were incubated overnight with antibodies (1:1000). […] Pre-treatment biopsies were collected within two weeks of the first dose and post-treatment biopsies collected after at last three weeks of treatment. Extracts were prepared in 50 mM Tris-HCl, pH7.4, 150 mM NaCl, 1 mM EDTA, 1% NP40, 0.25% sodium deoxycholate and supplemented with mini-protease inhibitor cocktail (Roche). Tumor response was assessed by reference radiologist by CT scan every six weeks for 36 weeks, and every 12 weeks thereafter."}, "[11]": {"settings": "ratio of MDM2 detected by Image J scanning in treated versus untreated cultures"}}}
{"smiles": "CC(=O)c1c(C)c2cnc(Nc3ccc(N4CCNCC4)cn3)nc2n(C2CCCC2)c1=O", "note": "[PD0332991]", "values": [{"measurement": "MDM2 expression levels reduced compared to the non-treated cells", "setting": "[1]", "value": "greater than 34%"}, {"measurement": "ΔMDM2 with PD", "setting": "[1]; [11]", "value": 0.66}, {"measurement": "MDM2 expression levels reduced compared to the non-treated cells", "setting": "[2]", "value": "greater than 34%"}, {"measurement": "ΔMDM2 with PD", "setting": "[2]; [11]", "value": 0.08}, {"measurement": "MDM2 levels", "setting": "[3]; cells that did not undergo senescence", "value": "unaffected"}, {"measurement": "ΔMDM2 with PD", "setting": "[3]; [11]", "value": "Not detected"}, {"measurement": "unphosphorylated RB", "setting": "RB in WD/DDLS cell lines", "value": "accumulated"}, {"measurement": "number of foci", "setting": "[4]", "value": "largely unaffected"}, {"measurement": "number of γH2Ax and 5313P1 foci", "setting": "[5]", "value": "reduced"}, {"measurement": "Oil-Red O staining", "setting": "[6]", "value": "not increased"}, {"measurement": "MDM2 transcripts", "setting": "[7]", "value": "modestly reduced"}, {"measurement": "MDM2 stability", "setting": "[8]", "value": "largely unaffected"}, {"measurement": "HAUSP levels", "setting": "[9]", "value": "did not change"}, {"measurement": "cell cycle exit (phosphorylated Rb, cyclin A, BrdU incorporation)", "setting": "[10]", "value": "not affected"}, {"measurement": "p53 levels", "setting": "[10]", "value": "still reduced"}, {"measurement": "SA-β-gal accumulation", "setting": "[10]; seven days", "value": "failed to accumulate"}, {"measurement": "patients who performed well on the drug (RECIST)", "setting": "WD/DDLS; of nine patients with pre- and post-treatment biopsies", "value": "five"}, {"measurement": "tumor size decrease", "setting": "WD/DDLS; patient 1, RECIST response, as of March 2013, 125 mg daily for 21 days, seven days of rest", "value": "greater than 60%"}]}
